According to article PMC12775434, “Ultra-large virtual screening unveils potent agonists of the neuromodulatory orphan receptor GPR139” (Nature Communications, 2025):
Where “and” joins values, the source holds several entries; their conditions need not be identical. Equal values may be shown once. Read-outs that look alike come from different tables or passages of the source.

Target: T1, GPR139 (Homo sapiens, UniProt Q6DWJ6)
T1 sequence (Q6DWJ6 1-353): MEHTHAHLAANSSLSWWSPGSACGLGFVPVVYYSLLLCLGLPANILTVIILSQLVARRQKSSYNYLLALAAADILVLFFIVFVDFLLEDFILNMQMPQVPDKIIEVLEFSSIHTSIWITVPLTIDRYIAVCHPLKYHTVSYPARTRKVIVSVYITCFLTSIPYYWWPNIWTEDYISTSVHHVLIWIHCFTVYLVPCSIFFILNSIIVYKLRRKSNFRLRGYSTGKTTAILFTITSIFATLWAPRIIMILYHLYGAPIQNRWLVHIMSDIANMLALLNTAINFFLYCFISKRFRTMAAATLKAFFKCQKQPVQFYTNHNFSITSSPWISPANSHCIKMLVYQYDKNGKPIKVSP
Test: Inositol monophosphate (IP1) accumulation assay, GPR139-CHOk1
Assay type: cell-based
Details: for Emax: normalized to Lundbeck Cmp 1a, read-out: Emax (%) IP1
Procedure: Primary screening and pharmacological characterization of compounds were performed using a CHO-K1 cell line that stably expresses human GPR139 (GPR139-CHOk1). The GPR139-CHOk1 cell line was kindly provided by H. Lundbeck A/S, Denmark[24]. GPR139-CHOk1 cells were grown in Ham’s F-12 Kaighn’s Modification Medium (ThermoFisher #21127030) supplemented with 10% dialyzed fetal bovine serum (US origin, ThermoFisher #26400044), 100 units/mL Penicillin-Streptomycin (ThermoFisher #15140122), and 1 mg/mL Geneticin (ThermoFisher #11811031). […] M1R-CHOk1 cells were purchased from The Missouri S&T cDNA Resource Center (#CEM100TN00). M1R-CHOk1 cells were grown in Ham’s F12 Medium (ThermoFisher #21765029) supplemented with 10% fetal bovine serum (Brazilian origin, ThermoFisher #10270106), 100 units/mL Penicillin-Streptomycin, and 0.25 mg/mL Geneticin. HEK293A cells transiently transfected with GPR139 were used for additional pharmacological assessment of signaling pathways activated by GPR139. HEK239A cells were generously provided by Dr. Asuka Inoue, Tohoku University, Japan. HEK293A cells were grown in Dulbecco’s Modified Eagle Medium (ThermoFisher #31966047) supplemented with 10% dialyzed fetal bovine serum and 100 units/mL Penicillin-Streptomycin. Cell lines were maintained at 37 °C in humidified incubator equilibrated with 5% CO2.
HTRF IP-One Gq kit (Cisbio #62IPAPEC) was used to detect the accumulation of inositol monophosphate (IP1) as described in the work by Shehata et al.[26]. GPR139-CHOk1 cells were dissociated and resuspended in HEPES buffer. 50,000 cells in 5 µL and 5 µL test compounds diluted from DMSO stocks (final DMSO concentration of maximally 0.3%) in HEPES buffer supplemented with 40 mM LiCl were mixed in each well of white 384-well OptiPlate (PerkinElmer #6007290). The cells were incubated for 1 h at 37 °C. Then, 10 µL detection reagent composed of 2.5% Eu3 + -anti-IP1 antibody and 2.5% IP1-d2 diluted in lysis buffer was added, and the cells were incubated for 1 h at room temperature before measurements. Measurements were performed on EnVision Multimode Plate Reader (PerkinElmer) using excitation light of 340 nm and emission light of 615 nm and 665 nm. The time resolved-fluorescence resonance energy transfer (TR-FRET) 665 nm/615 nm ratio, which is inversely proportional to the IP1 accumulation, was used to determine the IP1 response.
Pharmacological data and statistical analyses were performed in GraphPad Prism v9–10 (Graphpad Software Inc., San Diego, CA), which are also specifically described in the figure and table legends. The functional assay responses were normalized to buffer (0%) and Lundbeck Cmp 1a or JNJ-63533054 (100%), for Ca^2+ and IP1 experiments in the GPR139-CHOk1 stable cell line or Ca^2+, G protein activation, and arrestin-3 recruitment experiments in the HEK293A cells transiently transfected with GPR139, respectively. Data are from at least three independent experiments, unless stated otherwise. Concentration-response curves were fitted applying non-linear regression using the log (agonist) versus response model with variable slope. ANOVA was applied for comparing results and determining statistical significance. Comparison of responses to the reference was performed using one-way ANOVA with Dunnett’s multiple comparisons test at significance threshold of p < 0.05. Comparison of responses across assays and ligands was performed using two-way ANOVA with Tukey’s multiple comparisons test at a significance threshold of p < 0.05.

[1] = Supplementary Table 2, mean ± SEM, read-out: pEC50 IP1 (converted)
[2] = log [Compound] M -4.5, replicate experiments
[3] = log [Compound] M -5.0, replicate experiments
[4] = log [Compound] M -5.5, replicate experiments
[5] = log [Compound] M -6.0, replicate experiments
[6] = log [Compound] M -6.5, replicate experiments
[7] = log [Compound] M -7.0, replicate experiments
[8] = log [Compound] M -7.5, replicate experiments
[9] = log [Compound] M -8.0, replicate experiments
[10] = log [compound] M -4.5, individual replicates
[11] = log [compound] M -5.0, individual replicates
[12] = log [compound] M -5.5, individual replicates
[13] = log [compound] M -6.0, individual replicates
[14] = log [compound] M -6.5, individual replicates
[15] = log [compound] M -7.0, individual replicates
[16] = log [compound] M -7.5, individual replicates
[17] = log [compound] M -8.0, individual replicates

Emax (Supplementary Table 2) [%]	EC50 (GPR139-CHOk1, read-out: EC50, IP1 accumulation) [nM]	Compound	EC50 [1] [nM]	IP1 response (% of Cmp 1a) [2]	IP1 response (% of Cmp 1a) [3]	IP1 response (% of Cmp 1a) [4]	IP1 response (% of Cmp 1a) [5]	IP1 response (% of Cmp 1a) [6]	IP1 response (% of Cmp 1a) [7]	IP1 response (% of Cmp 1a) [8]	IP1 response (% of Cmp 1a) [9]	IP1 response (% of Cmp 1a) [10]	IP1 response (% of Cmp 1a) [11]	IP1 response (% of Cmp 1a) [12]	IP1 response (% of Cmp 1a) [13]	IP1 response (% of Cmp 1a) [14]	IP1 response (% of Cmp 1a) [15]	IP1 response (% of Cmp 1a) [16]	IP1 response (% of Cmp 1a) [17]
91 ± 10	50	Cc1cscc1-c1nc(CC(=O)NC(C)c2ccccc2)no1 (centres unmarked) [Compound 1.1, CC(C1=CC=CC=C1)NC(CC2=NOC(C3=CSC=C3C)=N2)=O]	–	92 % of Cmp 1a and 58 % of Cmp 1a and 83 % of Cmp 1a and 87 % of Cmp 1a	112 % of Cmp 1a and 74 % of Cmp 1a and 80 % of Cmp 1a and 115 % of Cmp 1a	111 % of Cmp 1a and 87 % of Cmp 1a and 96 % of Cmp 1a and 100 % of Cmp 1a	125 % of Cmp 1a and 85 % of Cmp 1a and 89 % of Cmp 1a	112 % of Cmp 1a and 76 % of Cmp 1a (2×) and 95 % of Cmp 1a	71 % of Cmp 1a and 56 % of Cmp 1a and 38 % of Cmp 1a and 67 % of Cmp 1a	56 % of Cmp 1a and 27 % of Cmp 1a and 28 % of Cmp 1a and 45 % of Cmp 1a	22 % of Cmp 1a and 5 % of Cmp 1a and -0.544 % of Cmp 1a and 16 % of Cmp 1a	92 % of Cmp 1a and 58 % of Cmp 1a and 83 % of Cmp 1a and 87 % of Cmp 1a	112 % of Cmp 1a and 74 % of Cmp 1a and 80 % of Cmp 1a and 115 % of Cmp 1a	111 % of Cmp 1a and 87 % of Cmp 1a and 96 % of Cmp 1a and 100 % of Cmp 1a	125 % of Cmp 1a and 85 % of Cmp 1a and 89 % of Cmp 1a	112 % of Cmp 1a and 76 % of Cmp 1a (2×) and 95 % of Cmp 1a	71 % of Cmp 1a and 56 % of Cmp 1a and 38 % of Cmp 1a and 67 % of Cmp 1a	56 % of Cmp 1a and 27 % of Cmp 1a and 28 % of Cmp 1a and 45 % of Cmp 1a	22 % of Cmp 1a and 5 % of Cmp 1a and -0.544 % of Cmp 1a and 16 % of Cmp 1a
100 ± 9	–	COc1ccccc1-c1nc(CC(=O)NC(C)c2ccccc2)no1 (centres unmarked) [Compound 1.2, COC1=C(C2=NC(CC(NC(C3=CC=CC=C3)C)=O)=NO2)C=CC=C1]	501	–	–	–	–	–	–	–	–	124 % of Cmp 1a and 88 % of Cmp 1a and 75 % of Cmp 1a and 93 % of Cmp 1a	116 % of Cmp 1a and 87 % of Cmp 1a and 73 % of Cmp 1a and 117 % of Cmp 1a	100 % of Cmp 1a and 64 % of Cmp 1a and 57 % of Cmp 1a and 96 % of Cmp 1a	93 % of Cmp 1a and 47 % of Cmp 1a (2×) and 64 % of Cmp 1a	57 % of Cmp 1a and 45 % of Cmp 1a and 31 % of Cmp 1a and 51 % of Cmp 1a	15 % of Cmp 1a and 18 % of Cmp 1a and 6 % of Cmp 1a and 14 % of Cmp 1a	15 % of Cmp 1a and 11 % of Cmp 1a and -2 % of Cmp 1a and 7.38 % of Cmp 1a	2 % of Cmp 1a and -5.58 % of Cmp 1a and -11 % of Cmp 1a and 6.5 % of Cmp 1a

Compound	Emax (Supplementary Table 2) [%]	EC50 (GPR139-CHOk1, read-out: EC50, IP1 accumulation) [nM]	EC50 [1] [nM]	IP1 response (% of Cmp 1a) [2]	IP1 response (% of Cmp 1a) [3]	IP1 response (% of Cmp 1a) [4]	IP1 response (% of Cmp 1a) [5]	IP1 response (% of Cmp 1a) [6]	IP1 response (% of Cmp 1a) [7]	IP1 response (% of Cmp 1a) [8]	IP1 response (% of Cmp 1a) [9]	IP1 response (% of Cmp 1a) [10]	IP1 response (% of Cmp 1a) [11]	IP1 response (% of Cmp 1a) [12]	IP1 response (% of Cmp 1a) [13]	IP1 response (% of Cmp 1a) [14]	IP1 response (% of Cmp 1a) [15]	IP1 response (% of Cmp 1a) [16]	IP1 response (% of Cmp 1a) [17]
Cc1cc(-c2nc(CC(=O)NC(C)c3ccccc3)no2)sc1C (centres unmarked) [Compound 1, CC(NC(=O)CC1=NOC(=N1)C2=CC(C)=C(C)S2)C=3C=CC=CC3]	114 ± 5	–	794	99 % of Cmp 1a and 115 % of Cmp 1a and 112 % of Cmp 1a and 118 % of Cmp 1a	92 % of Cmp 1a and 116 % of Cmp 1a and 103 % of Cmp 1a and 95 % of Cmp 1a	125 % of Cmp 1a and 86 % of Cmp 1a and 77 % of Cmp 1a and 96 % of Cmp 1a	63 % of Cmp 1a and 74 % of Cmp 1a and 39 % of Cmp 1a and 72 % of Cmp 1a	35 % of Cmp 1a and 29 % of Cmp 1a and 17 % of Cmp 1a and 40 % of Cmp 1a	21 % of Cmp 1a and 14 % of Cmp 1a and 6 % of Cmp 1a and 18 % of Cmp 1a	-5 % of Cmp 1a and 4 % of Cmp 1a and 0.66 % of Cmp 1a and 5.34 % of Cmp 1a	1.43 % of Cmp 1a and -2.78 % of Cmp 1a and 0.322 % of Cmp 1a and 4 % of Cmp 1a	–	–	–	–	–	–	–	–
